Measured values published in US20060014740A1 (priority 2003, published 2006).
Like-named read-outs stand apart in the source and are kept apart here.

Tests used:
[1] = tested on: RH7777 rat hepatoma cells; assay: SRB cytotoxicity assay, RH7777 control cell line; format: cell-based; conditions: read-out: IC50 RH7777
Description: (§1) For in vitro cytotoxicity screening, 1000 to 5000 cells were plated into each well of 96-well plates depending on growth rate, and exposed to different concentrations of a test compound for 96 h in three to five replicates. All the compounds were dissolved in dimethyl sulfoxide at 5 to 20 mM, and diluted to desired concentrations in complete culture medium. Cell numbers at the end of the drug treatment were measured by the SRB assay (Gududuru et al., “Synthesis and Biological Evaluation of Novel Cytotoxic Phospholipids for Prostate Cancer,” Bioorg. Med. Chem. Lett. 14:4919-4923 (2004); Rubinstein et at., “Comparison of in vitro Anticancer-Drug-Screening Data Generated with a Tetrazolium Assay Versus a Protein Assay Against a Diverse Panel of Human Tumor Cell Lines,” J. Naatl, Cancer Inst. 82:1113-1118 (1990), each of which is hereby incorporated by reference in its entirety). Briefly, the cells were fixed with 10% of trichloroacetic acid, stained with 0.4% SRB, and the absorbances at 540 nm was measured using a plate reader (DYNEX Technologies, Chantilly, Va.).
(§2) The antiproliferative activity of all the synthesized compounds was evaluated against five human prostate cancer cell lines and in RH7777 cells (negative control) using the sulforhodamine B (SRB) assay (see description in Example 5 above).
(§3) The chosen cell lines represent different basal levels of active AKT and LPL receptor expression (discussed later). Cells were exposed to a wide range of concentrations (0 to 100 μM) of the indicated compound for 96 h. Cell numbers at the end of treatment were measured using the sulforhodamine B (SRB) assay^5.
(§4) Cells were exposed to a wide range of concentrations (0 to 100 μM) of the particular compound for 96 h in 96 well plates. Cells were fixed with 10% trichloroacetic acid, washed five times with water. The plates were air dried overnight and fixed cells were stained with SRB solution. The cellular protein-bound SRB was measured at 540 nm using a plate reader. Cell numbers at the end of the treatment were measured.
as §4, with “96-well” for “96 well”, “calculated as a percentage of untreated control.” for “measured.”

[2] = tested on: DU-145 human prostate cancer cells; assay: SRB cytotoxicity assay, DU-145; format: cell-based; conditions: 96 h
Description: as §1, §2, §3, §4
as §4, with “96-well” for “96 well”, “calculated as a percentage of untreated control.” for “measured.”

[3] = tested on: PC-3 human prostate cancer cells; assay: SRB cytotoxicity assay, PC-3; format: cell-based; conditions: 96 h; for IC50: Homo sapiens, read-out: IC50 PC-3
Description: as §1, §2, §3, §4
as §4, with “96-well” for “96 well”, “calculated as a percentage of untreated control.” for “measured.”

[4] = tested on: LNCaP human prostate cancer cells; assay: SRB cytotoxicity assay, LNCaP; format: cell-based; conditions: for IC50: Homo sapiens
Description: as §1, §2, §3, §4
as §4, with “96-well” for “96 well”, “calculated as a percentage of untreated control.” for “measured.”

[5] = tested on: PPC-1 human prostate cancer cells; assay: SRB cytotoxicity assay, PPC-1; format: cell-based; conditions: 96 h, read-out: IC50 PPC-1
Description: (§5) Dr. Mitchell Steiner at University of Tennessee Health Science Center, kindly provided PPG-1 and TSU-PrI cells.
as §1, §2, §3, §4
as §4, with “96-well” for “96 well”, “calculated as a percentage of untreated control.” for “measured.”

[6] = tested on: TSU-Pr1 human prostate cancer cells; assay: SRB cytotoxicity assay, TSU-Pr1; format: cell-based; conditions: 96 h, read-out: IC50 TSU-Pr1
Description: as §5, §1, §2, §3, §4
as §4, with “96-well” for “96 well”, “calculated as a percentage of untreated control.” for “measured.”

[7] = tested on: human breast cancer cell line (MCF-7); assay: SRB cytotoxicity assay, MCF-7; format: cell-based; conditions: 96 h, read-out: IC50 MCF-7
Description: as §1
In vitro cytotoxicity assay was performed by the same sulforhodamine B (SRB) assay (described above). The compounds shown in Table 8 below where tested for activity against the breast cancer and ovarian cancer cell lines.
as §3, §4

[8] = tested on: AKT phosphorylation (Pi-AKT) in LNCaP cells; assay: AKT phosphorylation by Western blot in LNCaP cells; format: cell-based, human; conditions: Example 13, 10 μM
Description: As another assessment of cytotoxicity, AKT inhibition was measured. […] The immunoblots were visualized by enhanced, chemiluminescence, and changes of relative levels of phospho-AKT compared to total AKT by analog treatment were quantified by densitometric analysis.
Prostate cell line LNCaP cells were treated with 30 μM of the compound of Formula: [drawing 54]
for the indicated period and time. The active form of AKT (Pi-AKT) and the β-Actin were quantified by Western blot analysis. […]
Prostate cell line LNCaP cells were treated with 10 μM of the compound of Formula: [drawing 55]
for the indicated period and time. The active form of AKT (Pi-AKT) and AKT were quantified by Western blot analysis. […]
Prostate cell line LNCaP cells were treated with 10 μM of the compound of Formula [drawing 56]
for the indicated period and time. The active form of AKT (Pi-AKT), AKT and β-Actin were quantified by Western blot analysis. […]

[9] = Rattus norvegicus, RH7777, Example 11 table, 96 h
[10] = Homo sapiens, DU-145, Example 11 table, read-out: IC50 DU145
[11] = LNCaP, Example 11 table, 96 h, read-out: IC50 LNCaP
[12] = Homo sapiens, PPC-1, Example 11 table
[13] = Homo sapiens, TSU-Pr1, Example 11 table
[14] = Homo sapiens, MCF7, Example 11 table

In the case of `O=C(O)[C@@H]1CSC(c2c(Cl)cccc2Cl)N1` (stereo partly shown), the IC50 [1, 9] is reported as over 100 µM, the IC50 [2, 10] is reported as over 100 µM and the IC50 ([3]; Example 11 table) is reported as over 100 µM. It also gave an IC50 [4, 11] of over 100 µM, an IC50 [5, 12] of over 100 µM and an IC50 [6, 13] of over 100 µM. The IC50 [7, 14] was over 100 µM.
In the case of `CC(C)(C)OC(=O)N[C@H](CO)C(=O)NCCCCCCCCCCCCNC(=O)[C@@H](CO)NC(=O)OC(C)(C)C`, the IC50 [1, 9] is reported as 8.5 µM, the IC50 [2, 10] is reported as over 20 µM and the IC50 ([3]; Example 11 table) is reported as over 20 µM. For the same molecule, the IC50 [4, 11] was 12.5 µM, the IC50 [5, 12] was over 20 µM and the IC50 [6, 13] was 3.7 µM. For the same molecule, the IC50 [7, 14] was 10.6 µM.
For `CCCCCCCCCCCCCCCCCCNC[C@H](CO)NC.Cl` [drawing 55], the IC50 ([4]; stated in the text of the LNCaP AKT experiments (Examples 12-14), test of the IC50 not named, read-out: IC50) was 3.3 µM, the “Time to almost complete inhibition of AKT phosphorylation” value [8] was at most 6 h and the “Relative abundance (Pi-AKT/AKT)” value ([8]; 6 h, (−) control 1.00) was 0.07. For the same molecule, the “Relative abundance (Pi-AKT/AKT)” value ([8]; 12 h) was 0.31, the “Relative abundance (Pi-AKT/AKT)” value ([8]; 24 h) was 1.02 and the “Relative abundance (Pi-AKT/AKT)” value ([8]; 36 h) was 0.63. The “Relative abundance (Pi-AKT/AKT)” value ([8]; 48 h) was 0.94.
`O=C(O)[C@@H]1CSC(c2ccc(F)cc2)N1` (stereo partly shown) gave an IC50 [1, 9] of over 100 µM, an IC50 [2, 10] of over 100 µM and an IC50 ([3]; Example 11 table) of over 100 µM. It also gave an IC50 [4, 11] of over 100 µM, an IC50 [5, 12] of over 100 µM and an IC50 [6, 13] of over 100 µM. It also gave an IC50 [7, 14] of over 100 µM.
With `CCCCCCCCCCCCCCCCCCCCNC[C@@H](N)CO` [S4] the IC50 ([1]; Rattus norvegicus, RH7777, Example 10 table, 0 to 100 μM for 96 h) was 2.9 µM, the IC50 ([2]; Homo sapiens, DU-145, read-out: IC50 DU-145, Example 10 table) was 4.1 µM and the IC50 ([3]; Example 10 table) was 2.6 µM. It also gave an IC50 ([4]; LNCaP, Example 10 table, 96 h, read-out: IC50 LNCaP) of 5.1 µM, an IC50 ([5]; Homo sapiens, PPC-1, Example 10 table) of 1.9 µM and an IC50 ([6]; Homo sapiens, TSU-Pr1, Example 10 table) of 2.2 µM. For the same molecule, the IC50 ([7]; Homo sapiens, MCF7, Example 10 table) was 4.6 µM.
Work on `N#Cc1ccc(C2N[C@H](C(=O)O)CS2)cc1` (stereo partly shown) yielded an IC50 [1, 9] of over 100 µM, an IC50 [2, 10] of over 100 µM and an IC50 ([3]; Example 11 table) of over 100 µM. For the same molecule, the IC50 [4, 11] was over 100 µM, the IC50 [5, 12] was over 100 µM and the IC50 [6, 13] was over 100 µM. For the same molecule, the IC50 [7, 14] was over 100 µM.
For `CCCCCCCCCCCCC1OC[C@@H](COP(=O)(O)O)O1.N.N` (stereo partly shown), the IC50 ([1]; Example 11 table, 96 h) was over 100 µM, the IC50 ([2]; Example 11 table, read-out: IC50 DU145) was over 100 µM and the “IC50 PC-3” value ([3]; Example 11 table) was “No toxicity”. For the same molecule, the “IC50 LNCaP” value ([4]; Example 11 table, 96 h) was “No toxicity”, the IC50 ([5]; Example 11 table) was over 100 µM and the IC50 ([6]; Example 11 table) was over 100 µM. For the same molecule, the IC50 ([7]; Example 11 table) was over 100 µM.
